Where two headings read alike, the source gives them in different places.
Assays:
α4β2 nAChR Subtype = α4β2 nAChR Subtype (Rattus norvegicus, UniProt P09483+P12390); assay: Radioligand binding at α4β2 nAChR subtype, inhibition of [3H]nicotine binding, rat cerebral cortex membranes; details: [3H]nicotine 5 nM
Method: The [^3H]nicotine (Specific Activity=81.5 Ci/mmol) was obtained from NEN Research Products. The binding of [^3H]nicotine was measured using a 3 h incubation at 4° C. […] Each filter was washed with ice-cold buffer (3×1 mL).
Each concentration was replicated in triplicate.

α7 nAChR Subtype = α7 nAChR Subtype (Rattus norvegicus, UniProt Q05941); assay: Radioligand binding at α7 nAChR subtype, inhibition of [3H]MLA binding, rat hippocampus membranes (HTS at 5 μM, then Ki); details: for inhibition at 5 µM: read-out: α7 HTS outcome (α7 Ki)
Human α4β2 = Human α4β2 (Homo sapiens, UniProt P17787+P43681); assay: Binding at human α4β2 (Ki); method not described
[1] = NOR (novel object recognition) task; type: in vivo; details: orally, in rats
Method: Certain exemplified compounds were assessed in the NOR (novel object recognition) task. This illustrates efficacy and potency of the compounds of the present invention in treating cognitive deficits, attention disorders, and dementias, and the potential of these compounds for human therapy.

[2] = read-out: α7 Ki, [3H]MLA 5 nM, rat hippocampus

Sequence of α4β2 nAChR Subtype (P09483 31-630): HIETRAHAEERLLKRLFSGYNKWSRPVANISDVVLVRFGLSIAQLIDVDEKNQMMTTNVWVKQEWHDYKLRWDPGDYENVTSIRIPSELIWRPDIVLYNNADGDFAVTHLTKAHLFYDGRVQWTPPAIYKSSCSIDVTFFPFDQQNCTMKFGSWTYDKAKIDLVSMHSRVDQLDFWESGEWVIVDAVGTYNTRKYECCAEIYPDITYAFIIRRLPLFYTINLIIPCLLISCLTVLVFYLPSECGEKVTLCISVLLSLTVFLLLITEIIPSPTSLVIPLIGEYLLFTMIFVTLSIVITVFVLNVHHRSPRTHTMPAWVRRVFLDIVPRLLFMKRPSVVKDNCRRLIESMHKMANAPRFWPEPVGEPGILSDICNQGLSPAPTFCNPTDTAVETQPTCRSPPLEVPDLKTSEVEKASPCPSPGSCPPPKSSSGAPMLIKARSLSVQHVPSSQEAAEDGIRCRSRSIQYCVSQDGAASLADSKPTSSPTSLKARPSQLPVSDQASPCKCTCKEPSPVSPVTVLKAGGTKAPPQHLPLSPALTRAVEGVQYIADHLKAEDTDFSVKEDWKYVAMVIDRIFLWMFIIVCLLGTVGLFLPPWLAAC
Sequence of α4β2 nAChR Subtype (P12390 25-500): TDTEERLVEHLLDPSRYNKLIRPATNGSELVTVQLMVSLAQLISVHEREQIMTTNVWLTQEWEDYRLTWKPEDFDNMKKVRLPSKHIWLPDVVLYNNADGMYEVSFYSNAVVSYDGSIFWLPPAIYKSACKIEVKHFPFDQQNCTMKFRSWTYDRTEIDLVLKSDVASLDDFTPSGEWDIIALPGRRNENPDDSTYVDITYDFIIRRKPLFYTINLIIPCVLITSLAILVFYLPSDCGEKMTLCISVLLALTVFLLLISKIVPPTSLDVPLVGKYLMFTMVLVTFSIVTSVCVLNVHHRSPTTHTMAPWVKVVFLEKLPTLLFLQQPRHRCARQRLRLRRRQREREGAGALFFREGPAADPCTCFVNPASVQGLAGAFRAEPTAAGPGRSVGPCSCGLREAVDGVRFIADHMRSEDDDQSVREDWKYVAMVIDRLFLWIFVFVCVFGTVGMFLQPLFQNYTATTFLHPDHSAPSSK
Sequence of α7 nAChR Subtype (Q05941 23-502): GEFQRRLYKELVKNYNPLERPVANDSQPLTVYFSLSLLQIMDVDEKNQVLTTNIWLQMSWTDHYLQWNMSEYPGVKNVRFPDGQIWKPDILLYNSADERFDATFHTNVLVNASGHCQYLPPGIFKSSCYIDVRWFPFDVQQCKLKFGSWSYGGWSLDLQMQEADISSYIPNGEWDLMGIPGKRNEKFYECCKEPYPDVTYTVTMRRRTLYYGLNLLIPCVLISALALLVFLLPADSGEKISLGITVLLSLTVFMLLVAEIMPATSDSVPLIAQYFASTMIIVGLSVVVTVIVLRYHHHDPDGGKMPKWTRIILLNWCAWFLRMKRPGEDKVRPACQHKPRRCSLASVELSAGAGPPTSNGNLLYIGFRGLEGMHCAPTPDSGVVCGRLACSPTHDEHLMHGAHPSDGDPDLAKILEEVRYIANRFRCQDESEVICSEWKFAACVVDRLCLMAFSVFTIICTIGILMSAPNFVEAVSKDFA
Sequence of Human α4β2 (P43681 29-627 limits assumed): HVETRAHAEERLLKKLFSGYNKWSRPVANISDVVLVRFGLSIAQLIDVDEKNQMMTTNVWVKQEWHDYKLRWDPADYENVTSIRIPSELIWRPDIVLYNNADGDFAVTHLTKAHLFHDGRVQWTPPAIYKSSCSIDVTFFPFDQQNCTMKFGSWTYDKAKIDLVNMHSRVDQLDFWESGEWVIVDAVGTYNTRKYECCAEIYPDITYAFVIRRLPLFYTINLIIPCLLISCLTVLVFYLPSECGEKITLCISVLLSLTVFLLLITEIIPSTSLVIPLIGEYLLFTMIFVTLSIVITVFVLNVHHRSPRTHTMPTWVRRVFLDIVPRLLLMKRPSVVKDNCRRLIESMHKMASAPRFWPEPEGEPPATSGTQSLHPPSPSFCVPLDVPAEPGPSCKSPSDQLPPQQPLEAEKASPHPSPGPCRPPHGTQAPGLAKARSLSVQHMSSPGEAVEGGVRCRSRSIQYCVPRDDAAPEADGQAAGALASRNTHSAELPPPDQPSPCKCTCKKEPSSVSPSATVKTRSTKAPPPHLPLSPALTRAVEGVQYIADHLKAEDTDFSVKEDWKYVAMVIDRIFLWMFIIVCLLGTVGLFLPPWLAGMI
Sequence of Human α4β2 (P17787 26-502): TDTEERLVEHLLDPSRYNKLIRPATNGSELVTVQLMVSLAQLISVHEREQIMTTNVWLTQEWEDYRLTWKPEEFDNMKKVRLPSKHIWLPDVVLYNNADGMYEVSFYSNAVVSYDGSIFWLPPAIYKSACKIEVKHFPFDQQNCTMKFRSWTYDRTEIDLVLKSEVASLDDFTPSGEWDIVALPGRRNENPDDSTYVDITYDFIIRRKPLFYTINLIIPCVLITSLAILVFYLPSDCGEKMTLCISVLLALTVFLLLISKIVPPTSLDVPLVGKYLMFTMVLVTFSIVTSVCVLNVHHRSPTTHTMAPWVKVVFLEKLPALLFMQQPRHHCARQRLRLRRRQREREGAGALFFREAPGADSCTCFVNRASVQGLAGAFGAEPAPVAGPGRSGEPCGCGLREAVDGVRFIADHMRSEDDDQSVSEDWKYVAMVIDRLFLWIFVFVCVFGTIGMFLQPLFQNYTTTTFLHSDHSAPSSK

| SMILES | Ki (α4β2 nAChR Subtype; read-out: Rat α4β2 Ki) | Ki (α7 nAChR Subtype) | Ki (Human α4β2) | activity in the NOR task (recognition index) ([1]; dose of 1 mg/kg, FIG. 2) | activity in the NOR task (recognition index) ([1]; dose of 0.1 mg/kg, FIG. 1) | inhibition at 5 µM (α7 nAChR Subtype) | Ki (α4β2 nAChR Subtype; Rat α4β2 Ki) | Ki (α7 nAChR Subtype; [2]) |
| --- | --- | --- | --- | --- | --- | --- | --- | --- |
| CNC(=O)C1CC2CNCC(C2)C1 (centres unmarked) [Compound B, N-methyl-3-azabicyclo[3.3.1]nonane-7-carboxamide] | 6 nM | > 10000 nM | 2 nM | active | – | – | – | – |
| COC(=O)C1C[C@H]2CNC[C@H]2C1 (mixture of isomers) [Compound A, methyl 3-azabicyclo[3.3.0]octane-7-carboxylate] | 20 nM | > 10000 nM | 8 nM | – | active | – | – | – |
| CC(C)CC(=O)C1C[C@H]2CNC[C@H]2C1 (mixture of isomers) [1-(3-azabicyclo[3.3.0]oct-7-yl)-3-methyl-1-butanone] | 27.3 nM | – | 4.6 nM | – | – | < 50% | – | – |
| CN(C)C(=O)C1=C[C@@H]2CNC[C@@H]2C1 [N,N-dimethyl-3-azabicyclo[3.3.0]oct-6-ene-7-carboxamide] | – | > 10000 nM | 164 nM | – | – | – | 60 nM | – |
| CNC(=O)C1C[C@H]2CNC[C@H]2C1 (mixture of isomers) [N-methyl-3-azabicyclo[3.3.0]octane-7-carboxamide] | 81.4 nM | 27300 nM | 185 nM | – | – | – | – | – |
| O=C(C1C[C@H]2CNC[C@H]2C1)N1CCCCO1 (mixture of isomers) [(3-azabicyclo[3.3.0]oct-7-yl)(1-oxazinan-2-yl)methanone] | 17.4 nM | – | 5.5 nM | – | – | – | – | ≥ 10000 nM |
| O=C(Nc1ccccc1F)C1CC2CNCC(C2)C1 (centres unmarked) [N-(2-fluorophenyl)-3-azabicyclo[3.3.1]nonane-7-carboxamide] | 63 nM | – | 24.1 nM | – | – | < 50% | – | – |
| O=C(OCCF)C1C[C@H]2CNC[C@H]2C1 (mixture of isomers) [2-fluoroethyl 3-azabicyclo[3.3.0]octane-7-carboxylate] | 55.1 nM | – | 102 nM | – | – | < 50% | – | – |
| O=C(OCC1CCOC1)C1C[C@H]2CNC[C@H]2C1 (mixture of isomers) [(tetrahydrofuran-3-yl)methyl 3-azabicyclo[3.3.0]octane-7-carboxylate] | 111 nM | – | 47.7 nM | – | – | < 50% | – | – |
| CC(CF)OC(=O)C1C[C@H]2CNC[C@H]2C1 (mixture of isomers) [1-fluoroprop-2-yl 3-azabicyclo[3.3.0]octane-7-carboxylate] | 271 nM | – | 112 nM | – | – | < 50% | – | – |
| C=CCNC(=O)C1CC2CNCC(C2)C1 (centres unmarked) [N-allyl-3-azabicyclo[3.3.1]nonane-7-carboxamide] | 30.6 nM | – | 4.3 nM | – | – | < 50% | – | – |
| COCCNC(=O)C1CC2CNCC(C2)C1 (centres unmarked) [N-(2-methoxyethyl)-3-azabicyclo[3.3.1]nonane-7-carboxamide] | 457 nM | – | 774 nM | – | – | < 50% | – | – |
| O=C(OC1CCCC1)C1C[C@H]2CNC[C@H]2C1 (mixture of isomers) [cyclopentyl 3-azabicyclo[3.3.0]octane-7-carboxylate] | 26.6 nM | – | 13.9 nM | – | – | < 50% | – | – |
| C=CCNC(=O)C1C[C@H]2CNC[C@H]2C1 (mixture of isomers) [N-allyl-3-azabicyclo[3.3.0]octane-7-carboxamide] | 419 nM | ≥ 10000 nM | 176 nM | – | – | – | – | – |
| CC(C)OC(=O)C1C[C@H]2CNC[C@H]2C1 (mixture of isomers) [isopropyl 3-azabicyclo[3.3.0]octane-7-carboxylate] | 103 nM | > 10000 nM | 7.8 nM | – | – | – | – | – |
| O=C(c1ccc(F)cc1)C1C[C@H]2CNC[C@H]2C1 (mixture of isomers) [4-fluorophenyl(3-azabicyclo[3.3.0]oct-7-yl)methanone] | 321 nM | – | 134 nM | – | – | < 50% | – | – |
| CC(C)(C)NC(=O)C1CC2CNCC(C2)C1 (centres unmarked) [N-tert-butyl-3-azabicyclo[3.3.1]nonane-7-carboxamide] | 10.9 nM | – | 7.1 nM | – | – | < 50% | – | – |
| O=C(NC1CCC1)C1CC2CNCC(C2)C1 (centres unmarked) [N-(cyclobutyl)-3-azabicyclo[3.3.1]nonane-7-carboxamide] | 135 nM | – | 308 nM | – | – | < 50% | – | – |

| SMILES | Ki (α4β2 nAChR Subtype; read-out: Rat α4β2 Ki) | Ki (α7 nAChR Subtype) | Ki (Human α4β2) | activity in the NOR task (recognition index) ([1]; dose of 1 mg/kg, FIG. 2) | activity in the NOR task (recognition index) ([1]; dose of 0.1 mg/kg, FIG. 1) | inhibition at 5 µM (α7 nAChR Subtype) | Ki (α4β2 nAChR Subtype; Rat α4β2 Ki) | Ki (α7 nAChR Subtype; [2]) |
| --- | --- | --- | --- | --- | --- | --- | --- | --- |
| O=C(C1CCCCC1)C1C[C@H]2CNC[C@H]2C1 (mixture of isomers) [cyclohexyl(3-azabicyclo[3.3.0]oct-7-yl)methanone] | 192 nM | – | 44.2 nM | – | – | < 50% | – | – |
| CCCNC(=O)C1CC2CNCC(C2)C1 (centres unmarked) [N-propyl-3-azabicyclo[3.3.1]nonane-7-carboxamide] | 21.4 nM | – | 10.4 nM | – | – | < 50% | – | – |
| NC(=O)C1CC2CNCC(C2)C1 (centres unmarked) [3-azabicyclo[3.3.1]nonane-7-carboxamide] | 40.5 nM | > 10000 nM | 76.9 nM | – | – | – | – | – |
| O=C(NCC(F)(F)F)C1CC2CNCC(C2)C1 (centres unmarked) [N-(2,2,2-trifiuoroethyl)-3-azabicyclo[3.3.1]nonane-7-carboxamide] | 40.8 nM | – | 22.8 nM | – | – | – | – | > 10000 nM |
| CC(C)NC(=O)C1CC2CNCC(C2)C1 (centres unmarked) [N-isopropyl-3-azabicyclo[3.3.1]nonane-7-carboxamide] | 82 nM | – | 31 nM | – | – | < 50% | – | – |
| O=C(C1C[C@H]2CNC[C@H]2C1)N1CCC[C@H]1CO (mixture of isomers) [(S)-(2-(hydroxymethyl)-1-pyrrolidinyl)(3-azabicyclo[3.3.0]oct-7-yl)methanone] | 537 nM | – | 271 nM | – | – | < 50% | – | – |
| O=C(NCc1ccccc1)C1CC2CNCC(C2)C1 (centres unmarked) [N-benzyl-3-azabicyclo[3.3.1]nonane-7-carboxamide] | 885 nM | – | 9 nM | – | – | < 50% | – | – |
| CCC(C)C(=O)C1C[C@H]2CNC[C@H]2C1 (mixture of isomers) [1-(3-azabicyclo[3.3.0]oct-7-yl)-2-methyl-1-butanone] | 11.1 nM | – | 3.3 nM | – | – | < 50% | – | – |
| O=C(OCc1ccoc1)C1C[C@H]2CNC[C@H]2C1 (mixture of isomers) [(furan-3-yl)methyl 3-azabicyclo[3.3.0]octane-7-carboxylate] | 19.6 nM | – | 16.3 nM | – | – | < 50% | – | – |
| O=C(NC1CC=CC1)C1CC2CNCC(C2)C1 (centres unmarked) [N-(3-cyclopentenyl)-3-azabicyclo[3.3.1]nonane-7-carboxamide] | 45.3 nM | – | 24.3 nM | – | – | < 50% | – | – |
| C/C=C/C(=O)C1C[C@H]2CNC[C@H]2C1 (stereo partly drawn) [trans-1-(3-azabicyclo[3.3.0]oct-7-yl)-2-buten-1-one] | – | > 10000 nM | 29.7 nM | – | – | – | 15.4 nM | – |
| C#CCC(C)OC(=O)C1C[C@H]2CNC[C@H]2C1 (mixture of isomers) [pent-4-yn-2-yl 3-azabicyclo[3.3.0]octane-7-carboxylate] | 144 nM | – | 68.7 nM | – | – | < 50% | – | – |
| CN(C)C(=O)[C@@H]1C[C@H]2CNC[C@H]2C1 [trans-N,N-dimethyl-3-azabicyclo[3.3.0]octane-7-carboxamide] | – | – | 114 nM | – | – | < 50% | 28.7 nM | – |
| CC(=O)C1C[C@H]2CNC[C@H]2C1 (mixture of isomers) [1-(3-azabicyclo[3.3.0]oct-7-yl)-1-ethanone] | 7.3 nM | – | 10.7 nM | – | – | – | – | > 10000 nM |
| O=C(c1ccncc1)C1C[C@H]2CNC[C@H]2C1 (mixture of isomers) [pyridin-4-yl(3-azabicyclo[3.3.0]oct-7-yl)methanone] | 43 nM | – | 36.4 nM | – | – | < 50% | – | – |
| CC(C)(C)C(=O)C1C[C@H]2CNC[C@H]2C1 (mixture of isomers) [1-(3-azabicyclo[3.3.0]oct-7-yl)-2,2-dimethyl-1-propanone] | 21.4 nM | – | 4.2 nM | – | – | < 50% | – | – |
| Cc1ccc(C(=O)C2C[C@H]3CNC[C@H]3C2)o1 (mixture of isomers) [5-methylfuran-2-yl(3-azabicyclo[3.3.0]oct-7-yl)methanone] | 74.3 nM | – | 37 nM | – | – | < 50% | – | – |

— US20100173968A1, “SUB-TYPE SELECTIVE AZABICYCLOALKANE DERIVATIVES” (TARGACEPT, INC., priority 2007, published 2010)
